# Laboratory results: patent publication US9492496B2, “Aminothiazoles and their uses” (Novartis AG, priority 2007, dated 2016)
# Tested on: prokaryotic transcription-translation (E. coli S30 extract)
# Experiment: In vitro assay for inhibition of prokaryotic transcription-translation (Promega E. coli S30 Extract System, pBESTluc luciferase readout)
# Type: biochemical
# Conditions: 2 uM compound, 2 h at 37° C., luciferase luminescence
# Protocol: In vitro assay for inhibition of prokaryotic transcription-translation [as described in the following references: 1. Zubay, G. (1973) In vitro synthesis of protein in microbial systems. Annu. Rev. Genet. 7, 267.87. 2. Zubay, G. (1980) The isolation and properties of CAP, the catabolite gene activator. Meth. Enzymol. 65, 856.77]. Antibiotic and compound dilutions: stock solutions of compound to be assayed at 2 μM are 80 μM in 40% DMSO. Stock solutions of compounds to be assayed at 10 μM are 400 μM in 40% DMSO.
# Assay setup and protocol for Promega E. coli S30 Extract System
# The assay is performed as follows: pipet 3.5 μl of 286 ng/μl template DNA (pBESTluc™) into assay wells. Negative control wells receive sdH2O only. Transfer 0.5 μl of 40× compound stock solution to assay wells. Positive control wells (no compound) receive 0.5 μl 40% DMSO sdH2O. Pipet 16 μl of master mix into assay wells. Incubate plate for two hours at 37° C. Rapidly chill the assay plate on ice for five minutes to stop the reaction. Add an equal volume (20 μl) of room temperature Steady-Glo® Luciferase assay reagent to all assay wells. Incubate 20 minutes and read light emitted with luminometer. Results are reported as % inhibition a 2 μM or 10 μM.
row,Compound,% inh. @ 2 uM
1,CNC(=O)C[C@@H]1NC(=O)c2csc(n2)-c2ccc(-c3nc(NC(=O)CC[C@H](CC(=O)O)C(=O)O)cs3)nc2-c2csc(n2)-c2csc(n2)[C@H]([C@@H](O)c2ccccc2)NC(=O)CNC(=O)c2nc(sc2COC)C(C(C)C)NC(=O)c2nc1sc2C (stereo partly drawn) [Compound 1],2 uM = 65.4%
2,CNC(=O)C[C@@H]1NC(=O)c2csc(n2)-c2ccc(-c3nc(NC(=O)CC[C@@H](CC(=O)O)C(=O)O)cs3)nc2-c2csc(n2)-c2csc(n2)[C@H]([C@@H](O)c2ccccc2)NC(=O)CNC(=O)c2nc(sc2COC)C(C(C)C)NC(=O)c2nc1sc2C (stereo partly drawn) [Compound 2],2 uM = 72.8%
3,CNC(=O)C[C@@H]1NC(=O)c2csc(n2)-c2ccc(-c3nc(N(CCCC(=O)O)C(=O)OCCCC(=O)O)cs3)nc2-c2csc(n2)-c2csc(n2)[C@H]([C@@H](O)c2ccccc2)NC(=O)CNC(=O)c2nc(sc2COC)C(C(C)C)NC(=O)c2nc1sc2C (stereo partly drawn) [Compound 3],2 uM = 67.8%
4,CNC(=O)C[C@@H]1NC(=O)c2csc(n2)-c2ccc(-c3nc(N(CCCC(=O)O)C(=O)O[C@H]4CC[C@H](C(=O)O)CC4)cs3)nc2-c2csc(n2)-c2csc(n2)[C@H]([C@@H](O)c2ccccc2)NC(=O)CNC(=O)c2nc(sc2COC)C(C(C)C)NC(=O)c2nc1sc2C (stereo partly drawn) [Compound 4],2 uM = 85.3%
5,CNC(=O)C[C@@H]1NC(=O)c2csc(n2)-c2ccc(-c3nc(N(CCCCCCC(=O)O)C(=O)O[C@H]4CC[C@H](C(=O)O)CC4)cs3)nc2-c2csc(n2)-c2csc(n2)[C@H]([C@@H](O)c2ccccc2)NC(=O)CNC(=O)c2nc(sc2COC)C(C(C)C)NC(=O)c2nc1sc2C (stereo partly drawn) [Compound 5],2 uM = 78.5%
6,CNC(=O)C[C@@H]1NC(=O)c2csc(n2)-c2ccc(-c3nc(N(CCCCC(=O)O)C(=O)O[C@H]4CC[C@H](C(=O)O)CC4)cs3)nc2-c2csc(n2)-c2csc(n2)[C@H]([C@@H](O)c2ccccc2)NC(=O)CNC(=O)c2nc(sc2COC)C(C(C)C)NC(=O)c2nc1sc2C (stereo partly drawn) [Compound 6],2 uM = 86.8%
7,CNC(=O)C[C@@H]1NC(=O)c2csc(n2)-c2ccc(-c3nc(N(CCCCCC(=O)O)C(=O)O[C@H]4CC[C@H](C(=O)O)CC4)cs3)nc2-c2csc(n2)-c2csc(n2)[C@H]([C@@H](O)c2ccccc2)NC(=O)CNC(=O)c2nc(sc2COC)C(C(C)C)NC(=O)c2nc1sc2C (stereo partly drawn) [Compound 7],2 uM = 86.0%
8,CNC(=O)C[C@@H]1NC(=O)c2csc(n2)-c2ccc(-c3nc(N(CCCC(=O)O)C(=O)CCCCC(=O)O)cs3)nc2-c2csc(n2)-c2csc(n2)[C@H]([C@@H](O)c2ccccc2)NC(=O)CNC(=O)c2nc(sc2COC)C(C(C)C)NC(=O)c2nc1sc2C (stereo partly drawn) [Compound 8],2 uM = 59.7%
9,CNC(=O)C[C@@H]1NC(=O)c2csc(n2)-c2ccc(-c3nc(N(CCCCC(=O)O)C(=O)O[C@H]4C[C@H](C(=O)O)C4)cs3)nc2-c2csc(n2)-c2csc(n2)[C@H]([C@@H](O)c2ccccc2)NC(=O)CNC(=O)c2nc(sc2COC)C(C(C)C)NC(=O)c2nc1sc2C (stereo partly drawn) [Compound 9],2 uM = 67.1%
10,CNC(=O)C[C@@H]1NC(=O)c2csc(n2)-c2ccc(-c3nc(N(CCCCC(=O)O)C(=O)[C@H]4CC[C@H]4C(=O)O)cs3)nc2-c2csc(n2)-c2csc(n2)[C@H]([C@@H](O)c2ccccc2)NC(=O)CNC(=O)c2nc(sc2COC)C(C(C)C)NC(=O)c2nc1sc2C (stereo partly drawn) [Compound 10],2 uM = 2.0%
11,CNC(=O)C[C@@H]1NC(=O)c2csc(n2)-c2ccc(-c3nc(NC(=O)N4C[C@H](CCC(=O)O)C[C@H](CCC(=O)O)C4)cs3)nc2-c2csc(n2)-c2csc(n2)[C@H]([C@@H](O)c2ccccc2)NC(=O)CNC(=O)c2nc(sc2COC)C(C(C)C)NC(=O)c2nc1sc2C (stereo partly drawn) [Compound 11],2 uM = 92.3%
12,CNC(=O)C[C@@H]1NC(=O)c2csc(n2)-c2ccc(-c3nc(N(CCCC(=O)O)C(=O)CCCCCC(=O)O)cs3)nc2-c2csc(n2)-c2csc(n2)[C@H]([C@@H](O)c2ccccc2)NC(=O)CNC(=O)c2nc(sc2COC)C(C(C)C)NC(=O)c2nc1sc2C (stereo partly drawn) [Compound 12],2 uM = 82.4%
13,CNC(=O)C[C@@H]1NC(=O)c2csc(n2)-c2ccc(-c3nc(N(CCCCC(=O)O)C(=O)OCc4ccc(C(=O)O)cn4)cs3)nc2-c2csc(n2)-c2csc(n2)[C@H]([C@@H](O)c2ccccc2)NC(=O)CNC(=O)c2nc(sc2COC)C(C(C)C)NC(=O)c2nc1sc2C (stereo partly drawn) [Compound 13],2 uM = 74.9%
14,CNC(=O)C[C@@H]1NC(=O)c2csc(n2)-c2ccc(-c3nc(N(CCCC(=O)O)C(=O)c4ccc(C(=O)O)cn4)cs3)nc2-c2csc(n2)-c2csc(n2)[C@H]([C@@H](O)c2ccccc2)NC(=O)CNC(=O)c2nc(sc2COC)C(C(C)C)NC(=O)c2nc1sc2C (stereo partly drawn) [Compound 14],2 uM = 55.5%
15,CNC(=O)C[C@@H]1NC(=O)c2csc(n2)-c2ccc(-c3nc(N(CCCC(=O)O)C(=O)C[C@H]4CC[C@H](C(=O)O)CC4)cs3)nc2-c2csc(n2)-c2csc(n2)[C@H]([C@@H](O)c2ccccc2)NC(=O)CNC(=O)c2nc(sc2COC)C(C(C)C)NC(=O)c2nc1sc2C (stereo partly drawn) [Compound 15],2 uM = 64.5%
16,CNC(=O)C[C@@H]1NC(=O)c2csc(n2)-c2ccc(-c3nc(N(CCCCC(=O)O)C(=O)[C@H]4CC[C@H](C(=O)O)CC4)cs3)nc2-c2csc(n2)-c2csc(n2)[C@H]([C@@H](O)c2ccccc2)NC(=O)CNC(=O)c2nc(sc2COC)C(C(C)C)NC(=O)c2nc1sc2C (stereo partly drawn) [Compound 16],2 uM = 64.3%
17,CNC(=O)C[C@@H]1NC(=O)c2csc(n2)-c2ccc(-c3nc(N(CCCCC(=O)O)C(=O)C[C@H]4CC[C@H](C(=O)O)CC4)cs3)nc2-c2csc(n2)-c2csc(n2)[C@H]([C@@H](O)c2ccccc2)NC(=O)CNC(=O)c2nc(sc2COC)C(C(C)C)NC(=O)c2nc1sc2C (stereo partly drawn) [Compound 17],2 uM = 63.9%
18,CNC(=O)C[C@@H]1NC(=O)c2csc(n2)-c2ccc(-c3nc(N(CCCCC(=O)O)C(=O)N[C@H]4CC[C@H](C(=O)O)CC4)cs3)nc2-c2csc(n2)-c2csc(n2)[C@H]([C@@H](O)c2ccccc2)NC(=O)CNC(=O)c2nc(sc2COC)C(C(C)C)NC(=O)c2nc1sc2C (stereo partly drawn) [Compound 18],2 uM = 52.7%
19,CNC(=O)C[C@@H]1NC(=O)c2csc(n2)-c2ccc(-c3nc(N(C/C=C/C(=O)O)C(=O)O[C@H]4CC[C@H](C(=O)O)CC4)cs3)nc2-c2csc(n2)-c2csc(n2)[C@H]([C@@H](O)c2ccccc2)NC(=O)CNC(=O)c2nc(sc2COC)C(C(C)C)NC(=O)c2nc1sc2C (stereo partly drawn) [Compound 19],2 uM = 76.4%
20,CNC(=O)C[C@@H]1NC(=O)c2csc(n2)-c2ccc(-c3nc(N(CC(CC(=O)O)OC)C(=O)O[C@H]4CC[C@H](C(=O)O)CC4)cs3)nc2-c2csc(n2)-c2csc(n2)[C@H]([C@@H](O)c2ccccc2)NC(=O)CNC(=O)c2nc(sc2COC)C(C(C)C)NC(=O)c2nc1sc2C (stereo partly drawn) [Compound 20],2 uM = 80.6%
21,CNC(=O)C[C@@H]1NC(=O)c2csc(n2)-c2ccc(-c3nc(N(CCCCC(=O)O)C(=O)N4CCC(C(=O)O)CC4)cs3)nc2-c2csc(n2)-c2csc(n2)[C@H]([C@@H](O)c2ccccc2)NC(=O)CNC(=O)c2nc(sc2COC)C(C(C)C)NC(=O)c2nc1sc2C (stereo partly drawn) [Compound 21],2 uM = 37.4%
22,CNC(=O)C[C@@H]1NC(=O)c2csc(n2)-c2ccc(-c3nc(NC(=O)N(CCCC(=O)O)CCCC(=O)O)cs3)nc2-c2csc(n2)-c2csc(n2)[C@H]([C@@H](O)c2ccccc2)NC(=O)CNC(=O)c2nc(sc2COC)C(C(C)C)NC(=O)c2nc1sc2C (stereo partly drawn) [Compound 22],2 uM = 79.8%
23,CNC(=O)C[C@@H]1NC(=O)c2csc(n2)-c2ccc(-c3nc(NC(=O)N(CCCC(=O)O)[C@H]4CC[C@H](C(=O)O)CC4)cs3)nc2-c2csc(n2)-c2csc(n2)[C@H]([C@@H](O)c2ccccc2)NC(=O)CNC(=O)c2nc(sc2COC)C(C(C)C)NC(=O)c2nc1sc2C (stereo partly drawn) [Compound 23],2 uM = 79.8%
24,CNC(=O)C[C@@H]1NC(=O)c2csc(n2)-c2ccc(-c3nc(N(CCOCC(=O)O)C(=O)O[C@H]4CC[C@H](C(=O)O)CC4)cs3)nc2-c2csc(n2)-c2csc(n2)[C@H]([C@@H](O)c2ccccc2)NC(=O)CNC(=O)c2nc(sc2COC)C(C(C)C)NC(=O)c2nc1sc2C (stereo partly drawn) [Compound 24],2 uM = 70.3%
25,CNC(=O)C[C@@H]1NC(=O)c2csc(n2)-c2ccc(-c3nc(N(CCCCC(=O)O)C(=O)O[C@H]4CC[C@](CCCCC(=O)O)(C(=O)OC)CC4)cs3)nc2-c2csc(n2)-c2csc(n2)[C@H]([C@@H](O)c2ccccc2)NC(=O)CNC(=O)c2nc(sc2COC)C(C(C)C)NC(=O)c2nc1sc2C (stereo partly drawn) [Compound 25],2 uM = 83.7%
26,CNC(=O)C[C@@H]1NC(=O)c2csc(n2)-c2ccc(-c3nc(N(CCCCC(=O)O)C(=O)OC(CCCCC(=O)O)CCC(=O)O)cs3)nc2-c2csc(n2)-c2csc(n2)[C@H]([C@@H](O)c2ccccc2)NC(=O)CNC(=O)c2nc(sc2COC)C(C(C)C)NC(=O)c2nc1sc2C (stereo partly drawn) [Compound 26],2 uM = 68.2%
27,CNC(=O)C[C@@H]1NC(=O)c2csc(n2)-c2ccc(-c3nc(N(CCCCC(=O)O)C(=O)OCC4CC4C(=O)O)cs3)nc2-c2csc(n2)-c2csc(n2)[C@H]([C@@H](O)c2ccccc2)NC(=O)CNC(=O)c2nc(sc2COC)C(C(C)C)NC(=O)c2nc1sc2C (stereo partly drawn) [Compound 27],2 uM = 81.9%
